Measured values: ChEMBL document CHEMBL1914411, “Synthesis of lipophilic dimeric C-7/C-7-linked ciprofloxacin and C-6/C-6-linked levofloxacin derivatives. Versatile in vitro biological evaluations of monomeric and dimeric fluoroquinolone derivatives as potential antitumor, antibacterial or antimycobacterial agents” (Eur J Med Chem, 2011)
Values after ≈ are worked out from the molar mass of the structure shown. Active and inactive are the calls of the source.

Key:
[1] = tested on: Mycobacterium tuberculosis; assay: Antimycobacterial activity against Mycobacterium tuberculosis H37Rv assessed as growth inhibition at 0.1 uM after 6 days by MTT colorimetric microassay; assay type: functional, organism-based
[2] = tested on: Mycobacterium tuberculosis; assay: Antimycobacterial activity against Mycobacterium tuberculosis H37Rv assessed as growth inhibition at 1 uM after 6 days by MTT colorimetric microassay; assay type: functional; conditions: for inhibition of growth at 1 µM: 144 h, read-out: GI
[3] = tested on: Mycobacterium tuberculosis; assay: Antimycobacterial activity against Mycobacterium tuberculosis H37Rv after 6 days by MTT colorimetric microassay; assay type: functional, organism-based; conditions: 144 h
[4] = tested on: Mycobacterium tuberculosis; assay: Antimycobacterial activity against Mycobacterium tuberculosis H37Rv assessed as growth inhibition at 10 uM after 6 days by MTT colorimetric microassay; assay type: functional; conditions: 144 h, read-out: GI
Staphylococcus aureus [5] = assay: Antimicrobial activity against Staphylococcus aureus CIP 4.83 after 18 to 24 hrs by broth microdilution method; assay type: functional
Pseudomonas aeruginosa = assay: Antimicrobial activity against Pseudomonas aeruginosa CIP 82.118 after 18 to 24 hrs by broth microdilution method; assay type: functional
Escherichia coli = assay: Antimicrobial activity against Escherichia coli CIP 53126 after 18 to 24 hrs by broth microdilution method; assay type: functional
Enterococcus hirae = assay: Antimicrobial activity against Enterococcus hirae CIP 5855 after 18 to 24 hrs by broth microdilution method; assay type: functional
[6] = Antiproliferative activity against human U373MG cells after 120 hrs by MTT asasy; assay type: functional, cell-based, U-373MG ATCC; conditions: U373 MG
Staphylococcus aureus [7] = assay: Antimicrobial activity against multidrug-resistant Staphylococcus aureus isolate 2 after 18 to 24 hrs by broth microdilution method; assay type: functional
Staphylococcus aureus [8] = assay: Antimicrobial activity against methicillin-resistant Staphylococcus aureus ATCC 33591 after 18 to 24 hrs by broth microdilution method; assay type: functional
MCF7 = assay: Antiproliferative activity against human MCF7 cells after 120 hrs by MTT asasy; assay type: functional, cell-based; conditions: MCF7, 120 h
Staphylococcus aureus [9] = assay: Antimicrobial activity against multidrug-resistant Staphylococcus aureus isolate 1 after 18 to 24 hrs by broth microdilution method; assay type: functional
Staphylococcus aureus [10] = assay: Antimicrobial activity against methicillin-resistant Staphylococcus aureus ATCC 33592 after 18 to 24 hrs by broth microdilution method; assay type: functional
Staphylococcus aureus [11] = assay: Ratio of ciprofloxacin MIC to compound MIC for multidrug-resistant Staphylococcus aureus isolate 2; assay type: functional
Staphylococcus aureus [12] = assay: Ratio of ciprofloxacin MIC to compound MIC for multidrug-resistant Staphylococcus aureus isolate 1; assay type: functional

| SMILES | growth inhibition (GI) [1] | inhibition of growth at 1 µM [2] [%] | IC50 [3] [µM] | MIC [3] [µM] | inhibition of growth at 10 µM [4] [%] | MBC (Staphylococcus aureus [5]) [µM] | MIC (Staphylococcus aureus [5]) [µM] | MBC (Pseudomonas aeruginosa) [µM] | MIC (Pseudomonas aeruginosa) [µM] | MBC (Escherichia coli) [µM] | MIC (Escherichia coli) [µM] | MBC (Enterococcus hirae) [µM] | MIC (Enterococcus hirae) [µM] | IC50 [6] [µM] | also measured |
| --- | --- | --- | --- | --- | --- | --- | --- | --- | --- | --- | --- | --- | --- | --- | --- |
| CCCC(=O)OCOC(=O)c1cn2c3c(c(N4CCN(C)CC4)c(F)cc3c1=O)OC[C@@H]2C | inactive | 74 | 1.3 | 2.5 (≈ 1.15 µg/mL) | > 95 |  |  |  |  |  |  |  |  |  |  |
| CCCCCCCC(=O)OCOC(=O)c1cn2c3c(c(N4CCN(C)CC4)c(F)cc3c1=O)OC[C@@H]2C | inactive | 74 | 1.3 | 2.5 (≈ 1.29 µg/mL) | > 95 |  |  |  |  |  |  |  |  |  |  |
| CCCCCCCCCCCCCCCCCCCC(=O)OCOC(=O)c1cn2c3c(c(N4CCN(C)CC4)c(F)cc3c1=O)OC[C@@H]2C | inactive |  |  |  |  |  |  |  |  |  |  |  |  |  | growth inhibition (GI) [2]: inactive |
| CCCCCCCCCCCCCNC(=O)c1cn2c3c(c(N4CCN(C)CC4)c(F)cc3c1=O)OC[C@@H]2C | inactive | 5 |  | > 10 | > 95 |  |  |  |  |  |  |  |  |  |  |
| CCCCCCCCCCCCCCCNC(=O)c1cn2c3c(c(N4CCN(C)CC4)c(F)cc3c1=O)OC[C@@H]2C | inactive | 5 | 6.5 | 10 (≈ 5.71 µg/mL) | > 95 | 15.6 (≈ 8.9 µg/mL) | 15.6 (≈ 8.9 µg/mL) | 250 (≈ 143 µg/mL) | 62.5 (≈ 35.7 µg/mL) | 500 (≈ 285 µg/mL) | 125 (≈ 71.3 µg/mL) | 7.8 (≈ 4.45 µg/mL) | 7.8 (≈ 4.45 µg/mL) |  |  |
| C[C@H]1COc2c(N3CCN(C)CC3)c(F)cc3c(=O)c(C(=O)NCCCCCCNC(=O)c4cn5c6c(c(N7CCN(C)CC7)c(F)cc6c4=O)OC[C@@H]5C)cn1c23 | inactive |  |  | > 10 | 60 | 500 (≈ 401 µg/mL) | 125 (≈ 100 µg/mL) | 250 (≈ 201 µg/mL) | 62.5 (≈ 50.2 µg/mL) | 62.5 (≈ 50.2 µg/mL) | 62.5 (≈ 50.2 µg/mL) | 125 (≈ 100 µg/mL) | 125 (≈ 100 µg/mL) |  |  |
| CCCCCCCCNC(=O)c1cn2c3c(c(N4CCN(C)CC4)c(F)cc3c1=O)OC[C@@H]2C | inactive |  |  |  | > 95 | 31.2 (≈ 14.7 µg/mL) | 31.2 (≈ 14.7 µg/mL) | 250 (≈ 118 µg/mL) | 31.2 (≈ 14.7 µg/mL) | 500 (≈ 236 µg/mL) | 125 (≈ 59.1 µg/mL) | 31.2 (≈ 14.7 µg/mL) | 31.2 (≈ 14.7 µg/mL) | 2.3 |  |
| CCCCCCCCCCNC(=O)c1cn2c3c(c(N4CCN(C)CC4)c(F)cc3c1=O)OC[C@@H]2C | inactive | 5 | 5.8 | 10 (≈ 5.01 µg/mL) | > 95 | 7.8 (≈ 3.91 µg/mL) | 7.8 (≈ 3.91 µg/mL) | 250 (≈ 125 µg/mL) | 62.5 (≈ 31.3 µg/mL) | 500 (≈ 250 µg/mL) | 125 (≈ 62.6 µg/mL) | 15.6 (≈ 7.81 µg/mL) | 7.8 (≈ 3.91 µg/mL) |  |  |
| CCCCCCCCCC(=O)N1CCN(c2cc3c(cc2F)c(=O)c(C(=O)O)cn3C2CC2)CC1 | inactive | 20 |  |  | > 95 | 62.5 (≈ 30.4 µg/mL) | 7.8 (≈ 3.79 µg/mL) | 250 (≈ 121 µg/mL) | 125 (≈ 60.7 µg/mL) | 500 (≈ 243 µg/mL) | 125 (≈ 60.7 µg/mL) | 15.6 (≈ 7.58 µg/mL) | 15.6 (≈ 7.58 µg/mL) | 5 |  |
| CCCCCCCCCCCCCCCC(=O)OCOC(=O)c1cn2c3c(c(N4CCN(C)CC4)c(F)cc3c1=O)OC[C@@H]2C | inactive |  |  |  |  |  |  |  |  |  |  |  |  |  | growth inhibition (GI) [2]: inactive |
| O=C(O)c1cn(C2CC2)c2cc(N3CCN(C(=O)CCCCCCCCCCCCC(=O)N4CCN(c5cc6c(cc5F)c(=O)c(C(=O)O)cn6C5CC5)CC4)CC3)c(F)cc2c1=O | inactive |  |  |  |  | 1.9 (≈ 1.68 µg/mL) | ≤ 0.12 | 250 (≈ 221 µg/mL) | 62.5 (≈ 55.3 µg/mL) | 500 (≈ 443 µg/mL) | 62.5 (≈ 55.3 µg/mL) | 500 (≈ 443 µg/mL) | 125 (≈ 111 µg/mL) | 5 | MBC (Staphylococcus aureus [7]): 15.6 µM (≈ 13.8 µg/mL); MIC (Staphylococcus aureus [7]): 7.8 µM (≈ 6.9 µg/mL); MBC (Staphylococcus aureus [8]): 3.9 µM (≈ 3.45 µg/mL); MIC (Staphylococcus aureus [8]): 0.06 µM (≈ 0.0531 µg/mL); IC50 (MCF7): 5 µM; MBC (Staphylococcus aureus [9]): 500 µM (≈ 443 µg/mL); MIC (Staphylococcus aureus [9]): 7.8 µM (≈ 6.9 µg/mL); MBC (Staphylococcus aureus [10]): 0.97 µM (≈ 0.858 µg/mL); MIC (Staphylococcus aureus [10]): 0.12 µM (≈ 0.106 µg/mL) |
| O=C(CCCCCCCCCCCCC(=O)OCN1CCN(c2cc3c(cc2F)c(=O)c(C(=O)O)cn3C2CC2)CC1)OCN1CCN(c2cc3c(cc2F)c(=O)c(C(=O)O)cn3C2CC2)CC1 | inactive |  |  |  | 87 | ≤ 0.97 | ≤ 0.97 | 125 (≈ 118 µg/mL) | 62.5 (≈ 59.1 µg/mL) | 62.5 (≈ 59.1 µg/mL) | 31.2 (≈ 29.5 µg/mL) | 15.6 (≈ 14.7 µg/mL) | 15.6 (≈ 14.7 µg/mL) | 3 | MBC (Staphylococcus aureus [7]): 62.5 µM (≈ 59.1 µg/mL); MIC (Staphylococcus aureus [7]): 31.2 µM (≈ 29.5 µg/mL); MBC (Staphylococcus aureus [8]): 3.9 µM (≈ 3.69 µg/mL); MIC (Staphylococcus aureus [8]): 0.97 µM (≈ 0.917 µg/mL); IC50 (MCF7): 9 µM; MBC (Staphylococcus aureus [9]): 250 µM (≈ 236 µg/mL); MIC (Staphylococcus aureus [9]): 62.5 µM (≈ 59.1 µg/mL); MBC (Staphylococcus aureus [10]): 0.48 µM (≈ 0.454 µg/mL) |
| CCCCCCCCCCCCCC(=O)OCOC(=O)c1cn2c3c(c(N4CCN(C)CC4)c(F)cc3c1=O)OC[C@@H]2C | inactive |  | 1.3 | 2.5 (≈ 1.5 µg/mL) | > 95 | 3.9 (≈ 2.35 µg/mL) | 7.8 (≈ 4.69 µg/mL) | 250 (≈ 150 µg/mL) | 62.5 (≈ 37.6 µg/mL) | 15.6 (≈ 9.39 µg/mL) | 15.6 (≈ 9.39 µg/mL) | 15.6 (≈ 9.39 µg/mL) | 15.6 (≈ 9.39 µg/mL) |  |  |
| CCCC(=O)OCC(=O)N1CCN(c2cc3c(cc2F)c(=O)c(C(=O)O)cn3C2CC2)CC1 | inactive |  |  |  |  | ≤ 0.48 | ≤ 0.24 | 250 (≈ 115 µg/mL) | 62.5 (≈ 28.7 µg/mL) | 31.2 (≈ 14.3 µg/mL) | 31.2 (≈ 14.3 µg/mL) | ≤ 0.97 | ≤ 0.97 |  | MBC (Staphylococcus aureus [7]): 15.6 µM (≈ 7.17 µg/mL); MIC (Staphylococcus aureus [7]): 15.6 µM (≈ 7.17 µg/mL); MBC (Staphylococcus aureus [8]): 0.97 µM (≈ 0.446 µg/mL); MIC (Staphylococcus aureus [8]): 0.48 µM (≈ 0.221 µg/mL); Ratio (Staphylococcus aureus [11]): 2; MBC (Staphylococcus aureus [9]): 62.5 µM (≈ 28.7 µg/mL); MIC (Staphylococcus aureus [9]): 15.6 µM (≈ 7.17 µg/mL); Ratio (Staphylococcus aureus [12]): 2; MBC (Staphylococcus aureus [10]): 0.12 µM (≈ 0.0551 µg/mL); MIC (Staphylococcus aureus [10]): 0.06 µM (≈ 0.0276 µg/mL) |
| CCCCCCCCCCCC(=O)N1CCN(c2cc3c(cc2F)c(=O)c(C(=O)O)cn3C2CC2)CC1 | inactive | 20 |  |  | > 95 | 7.8 (≈ 4.01 µg/mL) | 3.9 (≈ 2 µg/mL) | 250 (≈ 128 µg/mL) | 62.5 (≈ 32.1 µg/mL) | 7.8 (≈ 4.01 µg/mL) | 7.8 (≈ 4.01 µg/mL) | 7.8 (≈ 4.01 µg/mL) | 7.8 (≈ 4.01 µg/mL) |  |  |
| CCCCCCCCCCCC(=O)OCOC(=O)c1cn2c3c(c(N4CCN(C)CC4)c(F)cc3c1=O)OC[C@@H]2C | inactive | 74 | 1.3 | 2.5 (≈ 1.43 µg/mL) | > 95 | ≤ 0.97 | ≤ 0.97 | 3.9 (≈ 2.24 µg/mL) | ≤ 0.97 | 3.9 (≈ 2.24 µg/mL) | 3.9 (≈ 2.24 µg/mL) | 1.9 (≈ 1.09 µg/mL) | 1.9 (≈ 1.09 µg/mL) | 0.2 |  |
| CCCCCCCCCCCC(=O)OCC(=O)N1CCN(c2cc3c(cc2F)c(=O)c(C(=O)O)cn3C2CC2)CC1 | inactive |  |  |  | > 95 | ≤ 0.97 | ≤ 0.97 | 250 (≈ 143 µg/mL) | 62.5 (≈ 35.7 µg/mL) | 250 (≈ 143 µg/mL) | 125 (≈ 71.5 µg/mL) | 7.8 (≈ 4.46 µg/mL) | 7.8 (≈ 4.46 µg/mL) | 49 | MBC (Staphylococcus aureus [7]): 250 µM (≈ 143 µg/mL); MIC (Staphylococcus aureus [7]): 62.5 µM (≈ 35.7 µg/mL); MBC (Staphylococcus aureus [8]): 3.9 µM (≈ 2.23 µg/mL); MIC (Staphylococcus aureus [8]): 1.9 µM (≈ 1.09 µg/mL); MBC (Staphylococcus aureus [9]): 500 µM (≈ 286 µg/mL); MIC (Staphylococcus aureus [9]): 125 µM (≈ 71.5 µg/mL); MBC (Staphylococcus aureus [10]): 0.97 µM (≈ 0.555 µg/mL); MIC (Staphylococcus aureus [10]): 0.06 µM (≈ 0.0343 µg/mL) |
